Values joined by “and” are separate entries in the source; they are usually repeats but may differ in a detail not shown here. Equal values may be shown once. Read-outs that look alike come from different tables or passages of the source. Marks after values point to notes of the source that are not given here.

Data on 15 molecules can be found in publication PMC11678116 (Molecules, 2024).

The subject of experiment [1] is P. falciparum 3D7 (Pf3D7). Nature of the experiment: In vitro drug sensitivity assay (HRP2-ELISA) against erythrocytic stage, CQ-sensitive strain. It counts as cell-based. Particulars: Plasmodium falciparum, mean ± SD (n ≥ 2). The method, then: Briefly, 96-well plates were pre-coated with the tested compounds in a three-fold dilution before ring-stage parasites were added to the complete culture medium at a haematocrit of 1.5% and a parasitaemia of 0.05%. […] All compounds were evaluated in duplicate in at least two independent experiments. The IC50 was determined by non-linear regression analysis of log concentration-response curves using the drc-package v0.9.0 of R v2.6.1 [42].

Experiment [2] relates to P. falciparum Dd2 (PfDd2). In words: microbe, parasite or virus in culture. Type of experiment: cell-based. The settings on record: Plasmodium falciparum, DD2, read-out: IC50 PfDd2. On the procedure: The resistance index (RI), which represents a ratio between IC50 obtained against PfDd2 and Pf3D7, was also calculated (Table 3).
Briefly, 96-well plates were pre-coated with the tested compounds in a three-fold dilution before ring-stage parasites were added to the complete culture medium at a haematocrit of 1.5% and a parasitaemia of 0.05%. After three days of incubation at 37 °C, 5% CO2, and 5% oxygen, plates were frozen until analysed by HRP2-ELISA. All compounds were evaluated in duplicate in at least two independent experiments. The IC50 was determined by non-linear regression analysis of log concentration-response curves using the drc-package v0.9.0 of R v2.6.1 [42].

In the next experiment the test system is HepG2 cells. In words: In vitro cytotoxicity, neutral red assay. It counts as cell-based. The settings on record: Homo sapiens, HepG2, 24 h, one day of incubation, mean ± SD (n ≥ 2). The method, then:
The cytotoxicity of the second-generation harmiquins 33–45 was assessed against HepG2 cells to determine the selectivity of the tested compounds towards P. falciparum in comparison to mammalian cells (Table 4).
Cytotoxicity against a human cell line (HepG2) was evaluated using the neutral red assay with minor modifications. In brief, human cells were seeded to a 96-well plate in a complete culture medium; on the following day, a serial dilution of the respective compound was added. After one day of incubation, cytotoxicity was evaluated by the addition of neutral red, subsequent lysis of cells, and measurement of absorbance (540 nm) in a plate reader (CLARIOstar, BMG Labtech). The IC50 was determined similarly to the in vitro drug assay against P. falciparum. To assess the safety of a compound, SI was calculated as the fractional ratio between the IC50s for HepG2 and P. falciparum 3D7 strain.

Experiment [3] concerns poly A–poly U (pApU, ds-RNA). Nature of the experiment: Fluorimetric titration with poly A–poly U. Type of experiment: binding. On the procedure:
The strong emission and favourable Stokes shift of emission maxima allowed the performance of fluorimetric titrations with ds-DNA/RNA at very low (5 µM) concentrations of investigated compounds.
(§1) The titration data are processed by a non-linear fitting procedure to the Scatchard equation [44, 45, 46], yielding binding constants (Supplemental Information, Figures S5–S12, Table 6).
(§2) Polynucleotides were purchased as noted: calf thymus (ct) DNA, poly dAdT–poly dAdT, poly dGdC–poly dGdC, and poly A–poly U (Sigma Aldrich, St. Louis, MO, USA), and dissolved in sodium cacodylate buffer (I = 0.05 M, pH = 7.0).

The test system of a further experiment is calf thymus (ct)-DNA. It counts as binding. The settings on record: for log Ks ctDNA: pH 7; for ΔInt ctDNA: ΔInt = Int(100% complex)/Int0.
From the text: as §1, §2

The subject of the next experiment is poly(dAdT)2. Type of experiment: binding.
From the text: as §1, §2

The target of experiment [4] is T1, human serum albumin (HSA) (Homo sapiens, UniProt P02768). Nature of the experiment: biochemical.
T1 sequence (P02768 25-609): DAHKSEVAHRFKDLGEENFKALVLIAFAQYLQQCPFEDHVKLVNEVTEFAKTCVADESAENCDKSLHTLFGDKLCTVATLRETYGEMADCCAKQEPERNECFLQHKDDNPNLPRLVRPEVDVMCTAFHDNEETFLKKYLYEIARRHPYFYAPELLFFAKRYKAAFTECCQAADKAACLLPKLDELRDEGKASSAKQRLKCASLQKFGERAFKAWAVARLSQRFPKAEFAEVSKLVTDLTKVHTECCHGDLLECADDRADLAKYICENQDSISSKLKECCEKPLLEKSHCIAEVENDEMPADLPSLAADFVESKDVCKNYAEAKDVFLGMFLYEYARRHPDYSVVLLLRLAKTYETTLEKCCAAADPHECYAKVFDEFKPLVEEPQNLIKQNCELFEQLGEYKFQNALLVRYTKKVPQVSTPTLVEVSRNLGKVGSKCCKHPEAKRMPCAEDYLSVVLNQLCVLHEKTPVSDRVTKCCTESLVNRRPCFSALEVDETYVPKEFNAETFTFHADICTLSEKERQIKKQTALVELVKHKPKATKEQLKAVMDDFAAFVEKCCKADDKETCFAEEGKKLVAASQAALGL
Method: (§3) The electronic absorption (UV/vis) spectra were recorded on a Varian Cary 100 Bio spectrophotometer (Varian, Inc., Palo Alto, CA, USA). Fluorescence measurements were performed on a Varian Cary Eclipse fluorimeter (Varian, Inc., CA, USA), taking care that the absorbance of a sample at the excitation wavelength was > 0.05 to avoid any impact of the inner filter effect.
(§4) Human serum albumin was purchased from Sigma-Aldrich (Sigma-Aldrich, St. Louis, MO, USA) supplier, and dissolved in milli Q (MQ) water.
(§5) Fluorimetric titration experiments were performed by adding aliquots of the polynucleotide stock solution into the solution of the studied dye. […] In both sets of experiments (fluorimetric and CD titrations), a buffer background was subtracted from each spectrum. Every reported spectrophotometric titration was the average of at least two measurements.
The target in experiment [5] is T1, human serum albumin (HSA). Nature of the experiment: Fluorimetric titration with HSA.
Method: as §3, §4, §5
Experiment [6] has as its system P. falciparum 3D7 (Pf3D7). Particulars: CQ-sensitive strain; cited from earlier work.
For experiment [7], the system named is P. falciparum Dd2 (PfDd2). Particulars: multi-drug resistant strain; cited from earlier work.

Regarding `CCCOc1ccc2c3ccnc(C)c3n(Cc3cn(CCNc4ccnc5cc(Cl)ccc45)nn3)c2c1` [Compound 39, 7-Chloro-N-(2-(4-((1-methyl-7-propoxy-9H-pyrido[3,4-b]indol-9-yl)methyl)-1H-1,2,3-triazol-1-yl)ethyl)quinolin-4-amine], the IC50 in experiment [1] amounted to 6.8 ± 4 nM. In addition, the half-maximal inhibitory concentration (IC50) in experiment [2] came out at 20.1 ± 2.2 nM. Besides, the 50% inhibitory concentration (IC50) in the experiment with HepG2 cells is 14400 ± 1700 nM. The “emission response to AU-RNA” value in experiment [3] (compound 5 µM, fluorimetric titration) was “completely insensitive”. Also, in the experiment with calf thymus (ct)-DNA, the “log Ks toward GC-containing DNAs” value is 4–5, the “log Ks ctDNA” value is recorded as 5.5 and the “ΔInt ctDNA” value is “(0.59)”. For the same molecule, the “emission response to AT-DNA” value with poly(dAdT)2 is given as “completely insensitive”. The dissociation constant (Kd) in experiment [4] was 6310 nM and 7940 nM.
Molecule `CCCOc1ccc2c3ccnc(C)c3n(CCNC(=O)CNc3ccnc4cc(Cl)ccc34)c2c1` [Compound 34, 2-((7-Chloroquinolin-4-yl)amino)-N-(2-(1-methyl-7-propoxy-9H-pyrido[3,4-b]indol-9-yl)ethyl)acetamide] returned an IC50 in experiment [1] of 11 ± 1.5 nM. Moreover, the concentration for half-maximal inhibition (IC50) in experiment [2] amounted to 17.7 ± 8.7 nM. Further, it took 18200 ± 1800 nM to reach half-maximal inhibition in the experiment with HepG2 cells (IC50). The “log Ks pApU” value in experiment [3] (estimation only, almost linear emission change, pH 7.0, sodium cacodylate buffer, I = 0.05 M) was >4 ^c. Moreover, in the experiment with calf thymus (ct)-DNA, the “log Ks toward GC-containing DNAs” value is listed as 6–7, the “log Ks ctDNA” value turned out to be 7.3 and the “ΔInt ctDNA” value is “(0.57)”. Further, the “log Ks toward AT-DNA and AU-RNA” value at poly(dAdT)2 was 4–5. Further, the “log Ks p(dA-dT)2” value at poly(dAdT)2 (pH 7) is 5.2. For the same molecule, the “ΔInt p(dA-dT)2” value with poly(dAdT)2 (ΔInt = Int(100% complex)/Int0) is “(2.28)”. Binding in [4] was characterised by a dissociation constant (Kd) of 794 nM. In addition, the “ΔInt HSA” value in experiment [5] was “(62.8)”.
Consider `CCc1nccc2c3ccccc3n(Cc3cn(CCNc4ccnc5cc(Cl)ccc45)nn3)c12` [Compound 43, 7-Chloro-N-(2-(4-((1-ethyl-9H-pyrido[3,4-b]indol-9-yl)methyl)-1H-1,2,3-triazol-1-yl)ethyl)quinolin-4-amine], for which the concentration for half-maximal inhibition (IC50) in [1] stood at 88.4 ± 0.5 nM; in [2], 204 ± 73.2 nM; in the experiment on HepG2 cells, 68200 ± 6100 nM.
Take `COc1ccc2c(c1)c1ccnc(C)c1n2Cc1cn(CCNc2ccnc3cc(Cl)ccc23)nn1` [Compound 41, 7-Chloro-N-(2-(4-((6-methoxy-1-methyl-9H-pyrido[3,4-b]indol-9-yl)methyl)-1H-1,2,3-triazol-1-yl)ethyl)quinolin-4-amine]: the IC50 came to 18.5 ± 6.1 nM in experiment [1], 98.7 ± 36.3 nM in experiment [2] and 32100 ± 1100 nM in the experiment with HepG2 cells.
For `CCOc1ccc2c3ccnc(C)c3n(Cc3cn(CCNc4ccnc5cc(Cl)ccc45)nn3)c2c1` [Compound 38, 7-Chloro-N-(2-(4-((7-ethoxy-1-methyl-9H-pyrido[3,4-b]indol-9-yl)methyl)-1H-1,2,3-triazol-1-yl)ethyl)quinolin-4-amine] the same measures were 18.7 ± 4.7 nM, 82.2 ± 2.2 nM and 29600 ± 6000 nM.
In the case of `Cc1nccc2c3ccc(OC(C)C)cc3n(CCNC(=O)CNc3ccnc4cc(Cl)ccc34)c12` [Compound 35, 2-((7-Chloroquinolin-4-yl)amino)-N-(2-(7-isopropoxy-1-methyl-9H-pyrido[3,4-b]indol-9-yl)ethyl)acetamide], the concentration for half-maximal inhibition (IC50) stood at 28.1 ± 0.5 nM in experiment [1], 26.5 ± 4.5 nM in [2] and 127000 ± 31500 nM in the experiment with HepG2 cells.
With `CC(C)c1nccc2c3ccccc3n(Cc3cn(CCNc4ccnc5cc(Cl)ccc45)nn3)c12` [Compound 45, 7-Chloro-N-(2-(4-((1-isopropyl-9H-pyrido[3,4-b]indol-9-yl)methyl)-1H-1,2,3-triazol-1-yl)ethyl)quinolin-4-amine], the IC50 turned out to be 15.9 ± 11.5 nM in [1], 18.8 ± 9.1 nM in experiment [2] and 128000 ± 2700 nM in the experiment on HepG2 cells.
Take `CCOc1ccc2c3ccnc(C)c3n(CCNC(=O)CNc3ccnc4cc(Cl)ccc34)c2c1` [Compound 33, 2-((7-Chloroquinolin-4-yl)amino)-N-(2-(7-ethoxy-1-methyl-9H-pyrido[3,4-b]indol-9-yl)ethyl)acetamide]: the IC50 in [1] is 4.7 ± 1.3 nM; in experiment [2], 6.5 ± 2.5 nM.
On to `CCCc1nccc2c3ccccc3n(Cc3cn(CCNc4ccnc5cc(Cl)ccc45)nn3)c12` [Compound 44, 7-Chloro-N-(2-(4-((1-propyl-9H-pyrido[3,4-b]indol-9-yl)methyl)-1H-1,2,3-triazol-1-yl)ethyl)quinolin-4-amine], for which the results for the 50% inhibitory concentration (IC50) (in experiment [1]; in experiment [2]; with HepG2 cells) were 96.9 ± 1.5 nM, 214 ± 71.8 nM and 68900 ± 4300 nM, respectively.
For `Cc1nccc2c3ccc(OC(C)C)cc3n(Cc3cn(CCNc4ccnc5cc(Cl)ccc45)nn3)c12` [Compound 40, 7-Chloro-N-(2-(4-((7-isopropoxy-1-methyl-9H-pyrido[3,4-b]indol-9-yl)methyl)-1H-1,2,3-triazol-1-yl)ethyl)quinolin-4-amine] the same measures were 25 ± 3.3 nM, 33.3 ± 1.6 nM and 26900 ± 900 nM.
As for `COc1ccc2c3ccnc(C)c3n(Cc3cn(CCNc4ccnc5cc(Cl)ccc45)nn3)c2c1` [B], the half-inhibitory concentration (IC50) in experiment [6] is 11.6 ± 3.8 nM; in experiment [7], 204 ± 9.89 nM.
Regarding `COc1ccc2c(c1)c1ccnc(C)c1n2CCNC(=O)CNc1ccnc2cc(Cl)ccc12` [Compound 36, 2-((7-Chloroquinolin-4-yl)amino)-N-(2-(6-methoxy-1-methyl-9H-pyrido[3,4-b]indol-9-yl)ethyl)acetamide], the IC50 in experiment [1] amounted to 16.6 ± 2.1 nM; in experiment [2], 36.7 ± 4 nM; in the experiment with HepG2 cells it was 24300 ± 3400 nM.
For `CCCOc1ccc2c(c1)c1ccnc(C)c1n2CCNC(=O)CNc1ccnc2cc(Cl)ccc12` [Compound 37, 2-((7-Chloroquinolin-4-yl)amino)-N-(2-(1-methyl-6-propoxy-9H-pyrido[3,4-b]indol-9-yl)ethyl)acetamide], the 50% inhibitory concentration (IC50) in experiment [1] was 4.6 ± 0.6 nM; in experiment [2] it was 10.5 ± 0.4 nM; in the experiment with HepG2 cells, 35800 ± 4300 nM.
Take `COc1ccc2c3ccnc(C)c3n(CCNC(=O)CNc3ccnc4cc(Cl)ccc34)c2c1` [A]: the half-maximal inhibitory concentration (IC50) in [6] is 2 ± 0.3 nM; in [7], 16.2 ± 2.83 nM.
Regarding `CCCOc1ccc2c(c1)c1ccnc(C)c1n2Cc1cn(CCNc2ccnc3cc(Cl)ccc23)nn1` [Compound 42, 7-Chloro-N-(2-(4-((1-methyl-6-propoxy-9H-pyrido[3,4-b]indol-9-yl)methyl)-1H-1,2,3-triazol-1-yl)ethyl)quinolin-4-amine], the half-inhibitory concentration (IC50) in experiment [1] turned out to be 7.6 ± 0.2 nM; in experiment [2], 15.5 ± 1.7 nM; in the experiment on HepG2 cells it was 20300 ± 1600 nM.

The term IC50 denotes the midpoint of a concentration-inhibition curve. As a reminder, the Kd is the concentration at which binding is half-saturated. Higher therefore signals lower affinity.
